Results from patent US12077537B2 (Gilead Sciences, Inc., priority 2020, dated 2024).

test system: HIV-IIIb; experiment: Antiviral assay in MT4 cells; assay type: cell-based; conditions: Human immunodeficiency virus 1, MT4, 120 h; MT-4 cells mixed with HIV-IIIb at m.o.i. 0.003; 5 days at 37° C.; CellTiter-Glo luminescence; 50% decrease in signal, a measure of HIV-1 replication
Procedure, shortened: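 Compound, tested at ten 3-fold dilutions in quadruplicate in 10% FBS medium, received MT-4 cells pre-mixed 1 hour with HIV-IIIb (m.o.i. 0.003). Protection was read as luminescent cell viability (CellTiter-Glo) after 5 days' culture at 37° C.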

Compound	EC50 [nM]
NC(=O)c1cc(-c2cc3sc(N4CCN(c5ccc(C(F)(F)F)cc5)CC4)nc3nc2[C@H](Cc2cc(F)cc(F)c2)NC(=O)Cn2nc(C(F)(F)F)c3c2C(F)(F)[C@@H]2C[C@H]32)ccc1F [Compound 141, 5-(5-((S)-1-(2-((3bS,4aR)-5,5-difluoro-3-(trifluoromethyl)-3b,4,4a,5-tetrahydro-1H-cyclopropa[3,4]cyclopenta[1,2-c]pyrazol-1-yl)acetamido)-2-(3,5-difluorophenyl)ethyl)-2-(4-(4-(trifluoromethyl)phenyl)piperazin-1-yl)thiazolo[4,5-b]pyridin-6-yl)-2-fluorobenzamide]	1810
CSc1nc2nc([C@H](Cc3cc(F)cc(F)c3)NC(=O)Cn3nc(C(F)(F)F)c4c3C(F)(F)[C@@H]3C[C@H]43)c(-c3ccc4c(c3)C(=O)NC4)cc2s1 [Compound 142, 2-((3bS,4aR)-5,5-difluoro-3-(trifluoromethyl)-3b,4,4a,5-tetrahydro-1H-cyclopropa[3,4]cyclopenta[1,2-c]pyrazol-1-yl)-N—((S)-2-(3,5-difluorophenyl)-1-(2-(methylthio)-6-(3-oxoisoindolin-5-yl)thiazolo[4,5-b]pyridin-5-yl)ethyl)acetamide]	38.9
O=C(Cn1nc(C(F)(F)F)c2c1C(F)(F)[C@@H]1C[C@H]21)N[C@@H](Cc1cc(F)cc(F)c1)c1nc2nc(-c3ccc4c(c3)C(=O)NC4)sc2cc1-c1ccc2c(c1)C(=O)NC2 [Compound 143, N—((S)-1-(2,6-bis(3-oxoisoindolin-5-yl)thiazolo[4,5-b]pyridin-5-yl)-2-(3,5-difluorophenyl)ethyl)-2-((3bS,4aR)-5,5-difluoro-3-(trifluoromethyl)-3b,4,4a,5-tetrahydro-1H-cyclopropa[3,4]cyclopenta[1,2-c]pyrazol-1-yl)acetamide]	15.5
O=C(Cn1nc(C(F)(F)F)c2c1C(F)(F)[C@@H]1C[C@H]21)N[C@@H](Cc1cc(F)cc(F)c1)c1nc2nc(-c3ccc(N4CCOCC4)cc3)sc2cc1-c1ccc2c(c1)C(=O)NC2 [Compound 144, 2-((3bS,4aR)-5,5-difluoro-3-(trifluoromethyl)-3b,4,4a,5-tetrahydro-1H-cyclopropa[3,4]cyclopenta[1,2-c]pyrazol-1-yl)-N—((S)-2-(3,5-difluorophenyl)-1-(2-(4-morpholinophenyl)-6-(3-oxoisoindolin-5-yl)thiazolo[4,5-b]pyridin-5-yl)ethyl)acetamide]	44.4
CC(C)(C)OC(=O)N1CCN(c2ccc(-c3nc4nc([C@H](Cc5cc(F)cc(F)c5)NC(=O)Cn5nc(C(F)(F)F)c6c5C(F)(F)[C@@H]5C[C@H]65)c(-c5ccc6c(c5)C(=O)NC6)cc4s3)cc2)CC1 [Compound 145, tert-butyl 4-(4-(5-((S)-1-(2-((3bS,4aR)-5,5-difluoro-3-(trifluoromethyl)-3b,4,4a,5-tetrahydro-1H-cyclopropa[3,4]cyclopenta[1,2-c]pyrazol-1-yl)acetamido)-2-(3,5-difluorophenyl)ethyl)-6-(3-oxoisoindolin-5-yl)thiazolo[4,5-b]pyridin-2-yl)phenyl)piperazine-1-carboxylate]	370
O=C(Cn1nc(C(F)(F)F)c2c1C(F)(F)[C@@H]1C[C@H]21)N[C@@H](Cc1cc(F)cc(F)c1)c1nc2nc(-c3ccc(N4CCNCC4)cc3)sc2cc1-c1ccc2c(c1)C(=O)NC2 [Compound 147, 2-((3bS,4aR)-5,5-difluoro-3-(trifluoromethyl)-3b,4,4a,5-tetrahydro-1H-cyclopropa[3,4]cyclopenta[1,2-c]pyrazol-1-yl)-N—((S)-2-(3,5-difluorophenyl)-1-(6-(3-oxoisoindolin-5-yl)-2-(4-(piperazin-1-yl)phenyl)thiazolo[4,5-b]pyridin-5-yl)ethyl)acetamide]	37
NC(=O)c1cc(-c2cc3sc(-c4cncnc4)nc3nc2[C@H](Cc2cc(F)cc(F)c2)NC(=O)Cn2nc(C(F)(F)F)c3c2C(F)(F)[C@@H]2C[C@H]32)ccc1F [Compound 148, 5-(5-((S)-1-(2-((3bS,4aR)-5,5-difluoro-3-(trifluoromethyl)-3b,4,4a,5-tetrahydro-1H-cyclopropa[3,4]cyclopenta[1,2-c]pyrazol-1-yl)acetamido)-2-(3,5-difluorophenyl)ethyl)-2-(pyrimidin-5-yl)thiazolo[4,5-b]pyridin-6-yl)-2-fluorobenzamide]	90.4
NC(=O)c1cc(-c2cc3sc(-c4cn[nH]c4)nc3nc2[C@H](Cc2cc(F)cc(F)c2)NC(=O)Cn2nc(C(F)(F)F)c3c2C(F)(F)[C@@H]2C[C@H]32)ccc1F [Compound 149, 5-(5-((S)-1-(2-((3bS,4aR)-5,5-difluoro-3-(trifluoromethyl)-3b,4,4a,5-tetrahydro-1H-cyclopropa[3,4]cyclopenta[1,2-c]pyrazol-1-yl)acetamido)-2-(3,5-difluorophenyl)ethyl)-2-(1H-pyrazol-4-yl)thiazolo[4,5-b]pyridin-6-yl)-2-fluorobenzamide]	106
CN(C)C1CN(c2nc3nc([C@H](Cc4cc(F)cc(F)c4)NC(=O)Cn4nc(C(F)(F)F)c5c4C(F)(F)[C@@H]4C[C@H]54)c(-c4cccc5c(NS(C)(=O)=O)nn(C)c45)cc3s2)C1 [Compound 150, 2-((3bS,4aR)-5,5-difluoro-3-(trifluoromethyl)-3b,4,4a,5-tetrahydro-1H-cyclopropa[3,4]cyclopenta[1,2-c]pyrazol-1-yl)-N—((S)-2-(3,5-difluorophenyl)-1-(2-(3-(dimethylamino)azetidin-1-yl)-6-(1-methyl-3-(methylsulfonamido)-1H-indazol-7-yl)thiazolo[4,5-b]pyridin-5-yl)ethyl)acetamide]	8
CN(C)c1ncc(-c2nc3nc([C@H](Cc4cc(F)cc(F)c4)NC(=O)Cn4nc(C(F)(F)F)c5c4C(F)(F)[C@@H]4C[C@H]54)c(-c4cccc5c(NS(C)(=O)=O)nn(C)c45)cc3s2)cn1 [Compound 151, 2-((3bS,4aR)-5,5-difluoro-3-(trifluoromethyl)-3b,4,4a,5-tetrahydro-1H-cyclopropa[3,4]cyclopenta[1,2-c]pyrazol-1-yl)-N—((S)-2-(3,5-difluorophenyl)-1-(2-(2-(dimethylamino)pyrimidin-5-yl)-6-(1-methyl-3-(methylsulfonamido)-1H-indazol-7-yl)thiazolo[4,5-b]pyridin-5-yl)ethyl)acetamide]	14.1
O=C(Cn1nc(C(F)(F)F)c2c1CCCC2)N[C@@H](Cc1ccccc1)c1nc2ccccc2[nH]1 [Example 1, (S)—N-(1-(1H-benzo[d]imidazol-2-yl)-2-phenylethyl)-2-(3-(trifluoromethyl)-4,5,6,7-tetrahydro-1H-indazol-1-yl)acetamide]	29700
N#Cc1cc(-c2cc3sc(N4CCOCC4)nc3nc2[C@H](Cc2cc(F)cc(F)c2)NC(=O)Cn2nc(C(F)F)c3c2C(F)(F)CCC3(F)F)ccc1F [Example 3K, (S)—N-(1-(6-(3-cyano-4-fluorophenyl)-2-morpholinothiazolo[4,5-b]pyridin-5-yl)-2-(3,5-difluorophenyl)ethyl)-2-(3-(difluoromethyl)-4,4,7,7-tetrafluoro-4,5,6,7-tetrahydro-1H-indazol-1-yl)acetamide]	1800
